Measured values published in PMC10160982 (Proceedings of the National Academy of Sciences of the …, 2023).

Assays:
SARS-CoV-2-trVLPs = type: cell-based, SARS-CoV-2 (Wuhan-Hu-1 strain); details: ratio of CC50 to antiviral EC50, Caco-2-N cells
[1] = test system: secretion of the matured form of IL-1β (P17) in SFTSV-infected THP-1 macrophages; assay: cells; type: cell-based; details: for inhibition at 10 µM: Homo sapiens, THP-1, 48 h, read-out: inhibition rate of IL-1β (P17) secretion
[2] = test system: SARS-CoV-2-induced IL-1β P17 release in Calu-3 cells; type: cell-based
[3] = target: SARS-CoV-2 polymerase complex (RdRp; nsp12, nsp7-nsp8) (Severe acute respiratory syndrome coronavirus 2, UniProt P0DTD1); assay: biochemical; details: RdRp inhibition IC50, in vitro polymerase activity assay
[4] = target: PDE4 (catalytic domain of human PDE4D) (Homo sapiens, UniProt Q08499); assay: PDE4 inhibition assay; type: biochemical
Sequence of PDE4 (catalytic domain of human PDE4D) (Q08499 388-715): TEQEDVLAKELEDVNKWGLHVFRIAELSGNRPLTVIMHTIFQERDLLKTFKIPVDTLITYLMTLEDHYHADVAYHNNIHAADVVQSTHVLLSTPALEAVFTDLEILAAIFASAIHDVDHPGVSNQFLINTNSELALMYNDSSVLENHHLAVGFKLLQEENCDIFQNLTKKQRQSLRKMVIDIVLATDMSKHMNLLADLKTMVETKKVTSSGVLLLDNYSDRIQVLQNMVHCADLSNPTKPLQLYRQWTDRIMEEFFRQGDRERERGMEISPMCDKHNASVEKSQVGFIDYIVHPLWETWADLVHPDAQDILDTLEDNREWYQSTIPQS

Structure (SMILES)	selectivity index (SI = CC50/EC50) (SARS-CoV-2-trVLPs)	anti-inflammation activity (inhibition of P17 secretion), dose dependence [1]	inhibition at 10 µM [1] [%]	reduction of SARS-CoV-2-induced IL-1β P17 release, dose dependence [2]	IC50 [3] [µM]	IC50 [4] [µM]
COc1cc(O)ccc1/C=C/C(=O)c1ccc(O)cc1 [Echinatin]	> 5.0	dose-dependent manner	> 90	dose-dependent effects		
Cc1cc(O)c2c(c1)C(=O)c1cc(O)cc(O)c1C2=O [Emodin]	> 5.0					
CC(C)=CCc1cc(-c2coc3cc(O)cc(O)c3c2=O)cc(O)c1O [Glycyrrhisoflavone]	> 5.0	dose-dependent manner	> 90	dose-dependent effects	28.9	1.29
C=CCc1ccc(O)c(-c2cc(CC=C)ccc2O)c1 [Magnolol]	> 5.0					
O=c1c(O)c(-c2ccc(O)c(O)c2)oc2cc(O)cc(O)c12 [Quercetin]	> 5.0					17.4
